Laboratory results taken from patent US9328099B2, “Cyanomethylpyrazole carboxamides as janus kinase inhibitors” (Merck Sharp & Dohme Corp., priority 2011, dated 2016).

Legend:
JAK1 = JAK1 (Homo sapiens (Human), UniProt P23458); experiment: Jak Biochemical HTRF Assay, JAK1; conditions: HTRF biochemical assay, GST-tagged catalytic domain; top concentration tested […]; read-out: JAK1 IC50
Text: (§1) Jak Biochemical HTRF Assay Protocol
(§2) Subsequent reagent additions employed an Agilent Bravo.

JAK2 = JAK2 (Homo sapiens (Human), UniProt O60674); experiment: Jak Biochemical HTRF Assay, JAK2; conditions: HTRF biochemical assay, GST-tagged catalytic domain; top concentration tested […]
JAK2, sequence (O60674 849-1124): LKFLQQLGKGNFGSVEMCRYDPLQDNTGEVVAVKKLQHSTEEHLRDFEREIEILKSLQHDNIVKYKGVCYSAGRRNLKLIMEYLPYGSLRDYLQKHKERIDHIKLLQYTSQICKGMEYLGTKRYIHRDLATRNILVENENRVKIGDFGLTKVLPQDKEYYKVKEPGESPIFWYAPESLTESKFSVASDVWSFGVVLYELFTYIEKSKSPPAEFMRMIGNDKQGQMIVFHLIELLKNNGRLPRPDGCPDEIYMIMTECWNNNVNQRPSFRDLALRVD
Text: as §1, §2

JAK1, sequence (P23458 875-1153): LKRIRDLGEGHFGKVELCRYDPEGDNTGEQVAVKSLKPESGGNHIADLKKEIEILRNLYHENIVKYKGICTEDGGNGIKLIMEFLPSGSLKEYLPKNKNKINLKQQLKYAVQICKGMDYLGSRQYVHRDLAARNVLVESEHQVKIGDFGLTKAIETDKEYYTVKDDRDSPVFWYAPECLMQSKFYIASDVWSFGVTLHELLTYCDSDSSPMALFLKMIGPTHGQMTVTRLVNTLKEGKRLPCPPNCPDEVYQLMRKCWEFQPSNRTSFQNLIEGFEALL

| SMILES | IC50 (JAK1) | IC50 (JAK2) |
| --- | --- | --- |
| COCCOC(=O)N1CCC(CC#N)(n2cc(C(N)=O)c(Nc3ccccc3)n2)CC1 [Example 30-35, 2-methoxyethyl 4-[4-carbamoyl-3-(phenylamino)-1H-pyrazol-1-yl]-4-(cyanomethyl)piperidine-1-carboxylate] | 4 nM | 71 nM |
| N#CCC1(n2cc(C(N)=O)c(Nc3ccccc3)n2)CCN(C(=O)OC2CCOC2)CC1 (centres unmarked) [Example 30-36, 4-carbamoyl-1-[4-(cyanomethyl)-1-{[(3R and 3S)-tetrahydrofuran-3-yloxy]carbonyl}piperidin-4-yl]-3-(phenylamino)-1H-pyrazol-2-ium] | 1 nM | 40 nM |
| N#CCC1(n2cc(C(N)=O)c(Nc3ccccc3)n2)CCN(C(=O)OC2CCOCC2)CC1 [Example 30-37, tetrahydro-2H-pyran-4-yl 4-[4-carbamoyl-3-(phenylamino)-1H-pyrazol-1-yl]-4-(cyanomethyl)piperidine-1-carboxylate] | 3 nM | 103 nM |
| N#CCC1(n2cc(C(N)=O)c(Nc3ccccc3)n2)CCN(C(=O)OCc2cccnc2)CC1 [Example 30-39, pyridin-3-ylmethyl 4-[4-carbamoyl-3-(phenylamino)-1H-pyrazol-1-yl]-4-(cyanomethyl)piperidine-1-carboxylate] | 2 nM | 38 nM |
| N#CCC1(n2cc(C(N)=O)c(Nc3ccccc3)n2)CCN(C(=O)OCc2ccncc2)CC1 [Example 30-40, pyridin-4-ylmethyl 4-[4-carbamoyl-3-(phenylamino)-1H-pyrazol-1-yl]-4-(cyanomethyl)piperidine-1-carboxylate] | 2 nM | 58 nM |
| CN1CCC(OC(=O)N2CCC(CC#N)(n3cc(C(N)=O)c(Nc4ccccc4)n3)CC2)CC1 [Example 30-42, 1-methylpiperidin-4-yl 4-[4-carbamoyl-3-(phenylamino)-1H-pyrazol-l-yl]-4-(cyanomethyl)piperidine-1-carboxylate] | 41 nM | 798 nM |
| CN1CCN(CCOC(=O)N2CCC(CC#N)(n3cc(C(N)=O)c(Nc4ccccc4)n3)CC2)CC1 [Example 30-43, 2-(4-methylpiperazin-1-yl)ethyl 4-[4-carbamoyl-3-(phenylamino)-1H-pyrazol-1-yl]-4-(cyanomethyl)piperidine-1-carboxylate] | 12 nM | 318 nM |
| CN1CCC(COC(=O)N2CCC(CC#N)(n3cc(C(N)=O)c(Nc4ccccc4)n3)CC2)CC1 [Example 30-44, (1-methylpiperidin-4-yl)methyl 4-[4-carbamoyl-3-(phenylamino)-1H-pyrazol-1-yl]-4-(cyanomethyl)piperidine-1-carboxylate] | 11 nM | 318 nM |
| N#CCC1(n2cc(C(N)=O)c(Nc3ccc(F)cc3)n2)CCN(C(=O)OCCC(F)(F)F)CC1 [Example 30-45, 3,3,3-Trifluoropropyl 4-{4-carbamoyl-3-[(4-fluorophenyl)amino]-1H-pyrazol-1-yl}-4-(cyanomethyl)piperidine-1-carboxylate] | 3 nM | 97 nM |
| N#CCC1(n2cc(C(N)=O)c(Nc3ccc(F)cc3)n2)CCN(C(=O)OC2CCOCC2)CC1 [Example 30-47, tetrahydro-2H-pyran-4-yl 4-{4-carbamoyl-3-[(4-fluorophenyl)amino]-1H-pyrazol-1-yl}-4-(cyanomethyl)piperidine-1-carboxylate] | 3 nM | 103 nM |
| COCCOC(=O)N1CCC(CC#N)(n2cc(C(N)=O)c(Nc3ccc(F)cc3)n2)CC1 [Example 30-48, 2-methoxyethyl 4-{4-carbamoyl-3-[(4-fluorophenyl)amino]-1H-pyrazol-1-yl}-4-(cyanomethyl)piperidine-1-carboxylate] | 4 nM | 71 nM |
| N#CCC1(n2cc(C(N)=O)c(Nc3ccnc(F)c3)n2)CCN(C(=O)OCC2CC2)CC1 [Example 30-49, Cyclopropylmethyl 4-{4-carbamoyl-3-[(2-fluoropyridin-4-yl)amino]-1H-pyrazol-1-yl}-4-(cyanomethyl)piperidine-1-carboxylate] | 0.3 nM | 18 nM |
| N#CCC1(n2cc(C(N)=O)c(Nc3ccccc3)n2)CN(C(=O)OCCF)C1 [Example 30-50, 2-fluoroethyl 3-[4-carbamoyl-3-(phenylamino)-1H-pyrazol-1-yl]-3-(cyanomethyl)azetidine-1-carboxylate] | 2 nM | 27 nM |
| CC(C)COC(=O)N1CC(CC#N)(n2cc(C(N)=O)c(Nc3ccccc3)n2)C1 [Example 30-51, 2-methylpropyl 3-[4-carbamoyl-3-(phenylamino)-1H-pyrazol-1-yl]-3-(cyanomethyl)azetidine-1-carboxylate] | 14 nM | 298 nM |
| N#CCC1(n2cc(C(N)=O)c(Nc3ccccc3)n2)CN(C(=O)OC2CCCC2)C1 [Example 30-52, cyclopentyl 3-[4-carbamoyl-3-(phenylamino)-1H-pyrazol-1-yl]-3-(cyanomethyl)azetidine-1-carboxylate] | 3 nM | 76 nM |
| N#CCC1(n2cc(C(N)=O)c(Nc3ccccc3)n2)CN(C(=O)OCc2ccccc2)C1 [Example 30-53, benzyl 3-[4-carbamoyl-3-(phenylamino)1H-pyrazol-1-yl]-3-(cyanomethyl)azetidine-1-carboxylate] | 11 nM | 262 nM |

| SMILES | IC50 (JAK1) | IC50 (JAK2) |
| --- | --- | --- |
| N#CCC1(n2cc(C(N)=O)c(Nc3ccccc3)n2)CN(C(=O)OCCN2CCOCC2)C1 [Example 30-55, 2-morpholin-4-ylethyl 3-[4-carbamoyl-3-(phenylamino)-1H-pyrazol-1-yl]-3-(cyanomethyl)azetidine-1-carboxylate] | 74 nM | 491 nM |
| N#CCC1(n2cc(C(N)=O)c(Nc3ccccc3)n2)CN(C(=O)OC2CCCCC2)C1 [Example 30-57, cyclohexyl 3-[4-carbamoyl-3-(phenylamino)-1H-pyrazol-1-yl]-3-(cyanomethyl)azetidine-1-carboxylate] | 14 nM | 466 nM |
| COCCOC(=O)N1CC(CC#N)(n2cc(C(N)=O)c(Nc3ccccc3)n2)C1 [Example 30-59, 2-methoxyethyl 3-[4-carbamoyl-3-(phenylamino)-1H-pyrazol-1-yl]-3-(cyanomethyl)azetidine-1-carboxylate] | 15 nM | 336 nM |
| CCOC(=O)COC(=O)N1CC(CC#N)(n2cc(C(N)=O)c(Nc3ccccc3)n2)C1 [Example 30-60, 2-ethoxy-2-oxoethyl 3-[4-carbamoyl-3-(phenylamino)-1H-pyrazol-1-yl]-3-(cyanomethyl)azetidine-1-carboxylate] | 39 nM | 484 nM |
| COCCCOC(=O)N1CC(CC#N)(n2cc(C(N)=O)c(Nc3ccccc3)n2)C1 [Example 30-61, 3-methoxypropyl 3-[4-carbamoyl-3-(phenylamino)-1H-pyrazol-1-yl]-3-(cyanomethyl)azetidine-1-carboxylate] | 37 nM | 603 nM |
| N#CCC1(n2cc(C(N)=O)c(Nc3ccccc3)n2)CN(C(=O)OC2CCOC2)C1 (centres unmarked) [Example 30-62, tetrahydrofuran-3-yl 3-[4-carbamoyl-3-(phenylamino)-1H-pyrazol-1-yl]-3-(cyanomethyl)azetidine-1-carboxylate] | 5 nM | 102 nM |
| N#CCC1(n2cc(C(N)=O)c(Nc3ccccc3)n2)CN(C(=O)OCCN2CCCC2=O)C1 [Example 30-64, 2-(2-oxopyrrolidin-1-yl)ethyl 3-[4-carbamoyl-3-(phenylamino)-1H-pyrazol-1-yl]-3-(cyanomethyl)azetidine-1-carboxylate] | 188 nM | 1480 nM |
| N#CCC1(n2cc(C(N)=O)c(Nc3ccccc3)n2)CN(C(=O)OCc2cccnc2)C1 [Example 30-65, pyridin-3-ylmethyl 3-[4-carbamoyl-3-(phenylamino)-1H-pyrazol-1-yl]-3-(cyanomethyl)azetidine-1-carboxylate] | 12 nM | 271 nM |
| N#CCC1(n2cc(C(N)=O)c(Nc3ccccc3)n2)CN(C(=O)OCc2ccncc2)C1 [Example 30-66, pyridin-4-ylmethyl 3-[4-carbamoyl-3-(phenylamino)-1H-pyrazol-1-yl]-3-(cyanomethyl)azetidine-1-carboxylate] | 19 nM | 353 nM |
| N#CCC1(n2cc(C(N)=O)c(Nc3ccccc3)n2)CN(C(=O)OCCc2ccccn2)C1 [Example 30-67, 2-pyridin-2-ylethyl 3-[4-carbamoyl-3-(phenylamino)-1H-pyrazol-1-yl]-3-(cyanomethyl)azetidine-1-carboxylate] | 108 nM | 849 nM |
| N#CCC1(n2cc(C(N)=O)c(Nc3ccccc3)n2)CN(C(=O)OCCCc2cccnc2)C1 [Example 30-68, 3-pyridin-3-ylpropyl 3-[4-carbamoyl-3-(phenylamino)-1H-pyrazol-1-yl]-3-(cyanomethyl)azetidine-1-carboxylate] | 45 nM | 445 nM |
| COc1ccccc1COC(=O)N1CC(CC#N)(n2cc(C(N)=O)c(Nc3ccccc3)n2)C1 [Example 30-69, 2-methoxybenzyl 3-[4-carbamoyl-3-(phenylamino)-1H-pyrazol-1-yl]-3-(cyanomethyl)azetidine-1-carboxylate] | 31 nM | 671 nM |
| COc1cccc(COC(=O)N2CC(CC#N)(n3cc(C(N)=O)c(Nc4ccccc4)n3)C2)c1 [Example 30-70, 3-methoxybenzyl 3-[4-carbarnoyl-3-(phenylamino)-1H-pyrazol-1-yl]-3-(cyanomethyl)azetidine-1-carboxylate] | 21 nM | 423 nM |
| CN(C)CCCOC(=O)N1CC(CC#N)(n2cc(C(N)=O)c(Nc3ccccc3)n2)C1 [Example 30-71, 3-(dimethylamino)propyl 3-[4-carbamoyl-3-(phenylamino)-1H-pyrazol-1-yl]-3-(cyanomethyl)azetidine-1-carboxylate] | 200 nM | 1480 nM |
| CN1CCC(COC(=O)N2CC(CC#N)(n3cc(C(N)=O)c(Nc4ccccc4)n3)C2)CC1 [Example 30-73, (1-methylpiperidin-4-yl)methyl-3-[4-carbamoyl-3-(phenylamino)-1H-pyrazol-1-yl]-3-(cyanomethyl)azetidine-1-carboxylate] | 130 nM | 1480 nM |
